Experimental data as given in ChEMBL document CHEMBL4177607, “Antibacterial constituents of the plant family Amaryllidaceae” (2017).
Values after ≈ are worked out from the molar mass of the structure shown.

Legend:
Escherichia coli [1] = test: Antibacterial activity against Escherichia coli assessed as diameter of inhibition zone at 20 mg/ml; format: functional; conditions: read-out: DIZ
Staphylococcus aureus [2] = test: Antibacterial activity against Staphylococcus aureus assessed as diameter of inhibition zone at 20 mg/ml; format: functional; conditions: read-out: DIZ
Staphylococcus aureus [3] = test: Antibacterial activity against Staphylococcus aureus assessed as diameter of inhibition zone at 1 mg/ml; format: functional; conditions: read-out: DIZ
Escherichia coli [4] = test: Antibacterial activity against Escherichia coli assessed as diameter of inhibition zone at 1 mg/ml; format: functional; conditions: read-out: DIZ
[5] = test system: Agrobacterium tumefaciens; test: Antibacterial activity against Agrobacterium tumefaciens assessed as inhibition of crown gall tumor initiation at 1 mg/ml; format: functional
Escherichia coli [6] = test: Bacteriostatic activity against Escherichia coli assessed as growth inhibition at 8 ug/ml after 24 hrs; format: functional; conditions: read-out: GI
Staphylococcus aureus [7] = test: Antibacterial activity against Staphylococcus aureus after 24 hrs; format: functional
Salmonella typhi = test: Antibacterial activity against Salmonella typhi assessed as diameter of inhibition zone at 20 mg/ml; format: functional, Salmonella enterica subsp. enterica serovar Typhi; conditions: Salmonella enterica; read-out: DIZ
Helicobacter pylori = test: Antibacterial activity against Helicobacter pylori assessed as diameter of inhibition zone at 1 mg/ml; format: functional; conditions: read-out: DIZ
Pseudomonas aeruginosa [8] = test: Antibacterial activity against Pseudomonas aeruginosa assessed as diameter of inhibition zone at 20 mg/ml; format: functional; conditions: read-out: DIZ
Klebsiella pneumoniae [9] = test: Antibacterial activity against Klebsiella pneumoniae assessed as diameter of inhibition zone at 20 mg/ml; format: functional; conditions: read-out: DIZ
Staphylococcus aureus [10] = test: Antibacterial activity against Staphylococcus aureus; format: functional
Escherichia coli [11] = test: Antibacterial activity against Escherichia coli; format: functional
Flavobacterium columnare [12] = test: Antibacterial activity against Flavobacterium columnare ALM-00-173; format: functional
Flavobacterium columnare [13] = test: Antibacterial activity against Flavobacterium columnare BioMed; format: functional
Pseudomonas aeruginosa [14] = test: Antibacterial activity against Pseudomonas aeruginosa; format: functional
Flavobacterium columnare [15] = test: Antibacterial activity against Flavobacterium columnare BioMed after 24 hrs; format: functional
Edwardsiella ictaluri = test: Antibacterial activity against Edwardsiella ictaluri after 24 hrs; format: functional
Rhodococcus fascians = test: Antibacterial activity against Corynebacterium fascians assessed as diameter of inhibition zone at 10 mM after 48 to 72 hrs by paper disc method; format: functional; conditions: Rhodococcoides fascians; read-out: DIZ
Flavobacterium columnare [16] = test: Antibacterial activity against Flavobacterium columnare ALM-00-173 after 24 hrs; format: functional; conditions: ALM-00-173, 24 h
Pseudomonas aeruginosa [17] = test: Antibacterial activity against Pseudomonas aeruginosa assessed as diameter of inhibition zone at 3 mg/ml; format: functional; conditions: read-out: DIZ
Staphylococcus aureus [18] = test: Antibacterial activity against Staphylococcus aureus assessed as diameter of inhibition zone at 3 mg/ml; format: functional; conditions: read-out: DIZ
Escherichia coli [19] = test: Antibacterial activity against Escherichia coli by agar dilution method; format: functional
Staphylococcus aureus [20] = test: Antibacterial activity against Staphylococcus aureus by agar dilution method; format: functional
Escherichia coli [21] = test: Antibacterial activity against Escherichia coli incubated overnight by two-fold serial dilution method; format: functional
Klebsiella pneumoniae [22] = test: Antibacterial activity against Klebsiella pneumoniae incubated overnight by two-fold serial dilution method; format: functional
Bacillus subtilis = test: Antibacterial activity against Bacillus subtilis incubated overnight by two-fold serial dilution method; format: functional
Staphylococcus aureus [23] = test: Antibacterial activity against Staphylococcus aureus incubated overnight by two-fold serial dilution method; format: functional

Structure (SMILES): O=c1c2cc3c(cc2c2cccc4ccn1c42)OCO3
- zone of inhibition at 20000 µg/mL (Escherichia coli [1]): 7 mm
- zone of inhibition at 20000 µg/mL (Staphylococcus aureus [2]): 7 mm

Structure (SMILES): O=C1N[C@@H]2C(=C[C@H](O)[C@@H](O)[C@H]2O)c2cc3c(c(O)c21)OCO3 [NARCICLASINE]
- zone of inhibition at 1000 µg/mL (Staphylococcus aureus [3]): 11 mm
- zone of inhibition at 1000 µg/mL (Escherichia coli [4]): 13 mm
- inhibition at 1000 µg/mL [5]: 62%
- inhibition of growth at 8 µg/mL (Escherichia coli [6]): 50%

Structure (SMILES): COc1cc2c(cc1OC)[C@@H]1[C@@H](OC2=O)[C@@H](O)C[C@H]2CCN(C)[C@H]21.Cl
- MIC (Staphylococcus aureus [7]): > 37 µg/mL

Structure (SMILES): CC[C@H](CC[C@@H](C)[C@H]1CC[C@H]2[C@@H]3CC=C4C[C@@H](O[C@@H]5O[C@H](CO)[C@@H](O)[C@H](O)[C@H]5O)CC[C@]4(C)[C@H]3CC[C@]12C)C(C)C [SITOGLUSIDE]
- zone of inhibition at 1000 µg/mL (Staphylococcus aureus [3]): 9 mm
- zone of inhibition at 20000 µg/mL (Escherichia coli [1]): 9 mm
- zone of inhibition at 20000 µg/mL (Salmonella typhi): 8 mm
- zone of inhibition at 1000 µg/mL (Helicobacter pylori): 9 mm
- zone of inhibition at 20000 µg/mL (Pseudomonas aeruginosa [8]): 7 mm
- zone of inhibition at 20000 µg/mL (Staphylococcus aureus [2]): 7 mm
- zone of inhibition at 1000 µg/mL (Escherichia coli [4]): 14 mm
- zone of inhibition at 20000 µg/mL (Klebsiella pneumoniae [9]): 8 mm

Structure (SMILES): [O-]c1cc2c3c(c1)c1cc4c(cc1c[n+]3CC2)OCO4 [UNGEREMINE]
- MIC (Staphylococcus aureus [10]): 25 to 265 µg/mL (≈ 94.2 to 999 µM)
- MIC (Escherichia coli [11]): 25 to 50 µg/mL (≈ 94.2 to 188 µM)
- MIC (Flavobacterium columnare [12]): 3 µg/mL (≈ 11.3 µM)
- MIC (Flavobacterium columnare [13]): 3 µg/mL (≈ 11.3 µM)
- MIC (Pseudomonas aeruginosa [14]): 125 to 250 µg/mL (≈ 471 to 942 µM)
- MIC (Flavobacterium columnare [15]): 1 µM (≈ 0.265 µg/mL)
- MIC (Edwardsiella ictaluri): 3 µg/mL (≈ 11.3 µM)
- zone of inhibition at 10000 µM (Rhodococcus fascians): 15 mm
- MIC (Flavobacterium columnare [16]): 1 µM (≈ 0.265 µg/mL)

Structure (SMILES): O[C@H]1C=C2[C@H]3CN(Cc4cc5c(cc43)OCO5)[C@H]2C[C@@H]1O
- zone of inhibition at 3000 µg/mL (Pseudomonas aeruginosa [17]): 16 mm
- zone of inhibition at 3000 µg/mL (Staphylococcus aureus [18]): 22 mm

Structure (SMILES): CCCCCCCCCCCCCCCCC/C=C/CCC[C@@H](O)[C@@H](O)C(CO)N(C(=O)[C@H](O)CCCCCCCCCCCCCCC)C(O)CO (stereo not given in full)
- MIC (Escherichia coli [19]): 50 µg/mL (≈ 66.1 µM)
- MIC (Staphylococcus aureus [20]): 30 µg/mL (≈ 39.7 µM)

Structure (SMILES): COc1c2c(cc3c1OCO3)[C@]13C=C[C@H](OC)C[C@H]1N(CC3)C2 [BUPHANIDRINE]
- MIC (Escherichia coli [21]): 63 µg/mL (≈ 200 µM)
- MIC (Klebsiella pneumoniae [22]): 63 µg/mL (≈ 200 µM)
- MIC (Bacillus subtilis): 130 µg/mL (≈ 412 µM)
- MIC (Staphylococcus aureus [23]): 63 µg/mL (≈ 200 µM)

Structure (SMILES): CC1(C)S[C@@H]2[C@H](NC(=O)Cc3ccccc3)C(=O)N2[C@H]1C(=O)O [PENICILLIN G]
- zone of inhibition at 1000 µg/mL (Staphylococcus aureus [3]): 28 mm
- MIC (Escherichia coli [19]): 0.77 µg/mL (≈ 2.3 µM)
- zone of inhibition at 1000 µg/mL (Escherichia coli [4]): 25 mm
- MIC (Staphylococcus aureus [20]): 0.46 µg/mL (≈ 1.38 µM)

Structure (SMILES): COC1=CC(=O)[C@@]23CCN(Cc4c2cc2c(c4OC)OCO2)[C@@H]3C1 [DISTICHAMINE]
- MIC (Escherichia coli [21]): 63 µg/mL (≈ 191 µM)
- MIC (Klebsiella pneumoniae [22]): 63 µg/mL (≈ 191 µM)
- MIC (Bacillus subtilis): 130 µg/mL (≈ 395 µM)
- MIC (Staphylococcus aureus [23]): 63 µg/mL (≈ 191 µM)
